# According to patent US20230257372A1 (CHONG KUN DANG PHARMACEUTICAL CORP., priority 2020, published 2023):
# Read-outs that look alike come from different tables or passages of the source.
# How the values were obtained:
# [1] = molecular target: T1, human recombinant HDAC1 (Homo sapiens, UniProt Q13547); experiment: HDAC1 enzyme activity inhibition (HDAC Fluorimetric Drug Discovery Kit); assay type: biochemical; settings: read-out: HDAC1
# T1 construct: purchased Enzo Life Science, Inc. BML-SE456
# Protocol: (§1) An experiment was conducted to identify the selectivity of the compound represented by formula I of the present invention to HDAC6 through an experiment on HDAC1 and HDAC6 enzyme activity inhibition.
# (§2) A 5-fold dilution of the compound was divided into a 96-well plate, after which […] of the enzyme and 10 μM of the substrate were inserted into each well and subjected to reaction at 30° C. for 60 minutes, such that Fluor de Lys® Developer II (BML-KI176) was inserted thereinto and subjected to reaction for 30 minutes and finished.
# [2] = molecular target: T2, human recombinant HDAC6 (Homo sapiens, UniProt Q9UBN7); experiment: HDAC6 enzyme activity inhibition (HDAC Fluorimetric Drug Discovery Kit); assay type: biochemical
# T2 construct: purchased Calbiochem Inc. 382180
# T2 sequence (Q9UBN7 1-1215): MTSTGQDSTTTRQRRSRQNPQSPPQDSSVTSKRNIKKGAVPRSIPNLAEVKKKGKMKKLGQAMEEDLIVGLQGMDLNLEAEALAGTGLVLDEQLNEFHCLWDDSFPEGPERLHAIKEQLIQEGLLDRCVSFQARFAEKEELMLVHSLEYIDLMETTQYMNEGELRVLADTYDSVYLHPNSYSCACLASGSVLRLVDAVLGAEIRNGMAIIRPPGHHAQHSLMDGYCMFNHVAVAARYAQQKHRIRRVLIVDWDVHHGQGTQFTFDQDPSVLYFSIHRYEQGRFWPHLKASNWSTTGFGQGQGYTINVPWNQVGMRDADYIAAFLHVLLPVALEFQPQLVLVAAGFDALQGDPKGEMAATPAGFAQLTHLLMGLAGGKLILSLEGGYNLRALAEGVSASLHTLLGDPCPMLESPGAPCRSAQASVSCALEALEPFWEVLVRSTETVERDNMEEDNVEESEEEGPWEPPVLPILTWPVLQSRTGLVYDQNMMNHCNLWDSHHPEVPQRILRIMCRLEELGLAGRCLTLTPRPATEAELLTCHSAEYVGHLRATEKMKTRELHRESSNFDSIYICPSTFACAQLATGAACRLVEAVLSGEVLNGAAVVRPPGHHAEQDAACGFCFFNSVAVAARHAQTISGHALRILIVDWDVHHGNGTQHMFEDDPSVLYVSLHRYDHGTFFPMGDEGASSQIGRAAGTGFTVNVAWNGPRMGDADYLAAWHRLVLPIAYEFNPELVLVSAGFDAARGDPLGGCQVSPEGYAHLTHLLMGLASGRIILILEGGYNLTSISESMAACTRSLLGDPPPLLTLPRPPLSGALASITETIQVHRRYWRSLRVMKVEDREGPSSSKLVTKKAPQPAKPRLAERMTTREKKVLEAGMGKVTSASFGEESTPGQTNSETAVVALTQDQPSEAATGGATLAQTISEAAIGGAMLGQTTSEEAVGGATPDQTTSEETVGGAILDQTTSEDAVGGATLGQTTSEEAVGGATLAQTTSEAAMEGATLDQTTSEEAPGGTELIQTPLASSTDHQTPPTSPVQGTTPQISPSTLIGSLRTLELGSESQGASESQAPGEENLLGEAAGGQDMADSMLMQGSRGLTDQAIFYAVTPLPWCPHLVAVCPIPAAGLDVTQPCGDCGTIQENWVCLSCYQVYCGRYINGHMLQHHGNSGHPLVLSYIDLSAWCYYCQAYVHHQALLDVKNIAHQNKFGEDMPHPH
# Protocol: as §1, §2
# [3] = human recombinant HDAC1, IC50 calculated with GraphPad Prism
# [4] = human recombinant HDAC6, IC50 calculated with GraphPad Prism
# [5] = human recombinant HDAC1, Fluor de Lys substrate, 30° C. 60 minutes
# [6] = human recombinant HDAC6, same protocol as HDAC1
# T1 sequence (Q13547 whole entry): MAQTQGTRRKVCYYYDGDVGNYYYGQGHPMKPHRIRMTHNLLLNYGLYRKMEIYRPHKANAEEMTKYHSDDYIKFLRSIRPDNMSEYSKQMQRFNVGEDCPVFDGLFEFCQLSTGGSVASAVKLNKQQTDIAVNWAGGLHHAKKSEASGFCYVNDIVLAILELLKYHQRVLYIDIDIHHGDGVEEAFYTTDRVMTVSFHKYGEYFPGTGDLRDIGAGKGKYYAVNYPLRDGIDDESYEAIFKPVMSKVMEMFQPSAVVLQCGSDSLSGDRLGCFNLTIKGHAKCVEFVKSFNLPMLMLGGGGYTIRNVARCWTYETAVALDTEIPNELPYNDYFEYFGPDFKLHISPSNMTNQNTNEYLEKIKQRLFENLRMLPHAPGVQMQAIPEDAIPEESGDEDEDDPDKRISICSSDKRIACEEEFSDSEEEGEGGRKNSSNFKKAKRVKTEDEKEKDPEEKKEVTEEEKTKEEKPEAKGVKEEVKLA
Structure (SMILES),"IC50 [1, 3] [nM]",HDAC6 selectivity (fold) ([2]; HDAC1 IC50 / HDAC6 IC50),"IC50 [2, 4] [nM]","IC50 [1, 5] [nM]",HDAC6 selectivity (fold) ([2]; HDAC6 over HDAC1),"IC50 [2, 6] [nM]"
"FC(F)c1nnc(-c2ccc(Cn3cc(-c4ccc5c(CN6CCCC6)c[nH]c5c4)nn3)nc2)o1 [Compound 4493, 2-(difluoromethyl)-5-(6-((4-(3-(pyrrolidin-1-ylmethyl)-1H-indol-6-yl)-1H-1,2,3-triazol-1-yl)methyl)pyridin-3-yl)-1,3,4-oxadiazole]",> 50000,7692,6.5,,,
"Fc1c(-c2cn(Cc3ccc(-c4nnc(C(F)F)o4)cn3)nn2)cccc1N1CCN(C2CCC2)CC1 [Compound 4572, 2-(6-((4-(3-(4-cyclobutylpiperazin-1-yl)-2-fluorophenyl)-1H-1,2,3-triazol-1-yl)methyl)pyridin-3-yl)-5-(difluoromethyl)-1,3,4-oxadiazole]",,,,> 50000,2564,19.5
"CN(C)Cc1cc(Cl)cc(-c2cn(Cc3ncc(-c4nnc(C(F)F)o4)cc3F)nn2)c1 [Compound 19090, 1-(3-chloro-5-(1-((5-(5-(difluoromethyl)-1,3,4-oxadiazol-2-yl)-3-fluoropyridin-2-yl)methyl)-1H-1,2,3-triazol-4-yl)phenyl)-N,N-dimethylmethanamine]",,,,> 50000,728,68.6
"Fc1ccnc(-c2cn(Cc3ccc(-c4nnc(C(F)F)o4)cn3)nn2)c1 [Compound 4179, 2-(difluoromethyl)-5-(6-((4-(4-fluoropyridin-2-yl)-1H-1,2,3-triazol-1-yl)methyl)pyridin-3-yl)-1,3,4-oxadiazole]",> 50000,672,74.4,,,
CC(C)N1CCN(c2cccc(-c3cn(Cc4ncc(-c5nnc(C(F)F)o5)cc4F)nn3)c2)CC1 [Compound 18926],,,,> 50000,782,63.9
"Fc1cc(-c2nnc(C(F)F)o2)ccc1Cn1cc(-c2cccc(NC3CCOCC3)c2)nn1 [Compound 4331, N-(3-(1-(4-(5-(difluoromethyl)-1,3,4-oxadiazol-2-yl)-2-fluorobenzyl)-1H-1,2,3-triazol-4-yl)phenyl)tetrahydro-2H-pyran-4-amine]",> 50000,1106,45.2,,,
"Fc1cc(-c2nnc(C(F)F)o2)cnc1Cn1cc(-c2ccc(CN3CCCC3)cc2Cl)nn1 [Compound 19100, 2-(6-((4-(2-chloro-4-(pyrrolidin-1-ylmethyl)phenyl)-1H-1,2,3-triazol-1-yl)methyl)-5-fluoropyridin-3-yl)-5-(difluoromethyl)-1,3,4-oxadiazole]",,,,> 50000,868,57.6
"Fc1cc(-c2nnc(C(F)F)o2)ccc1Cn1cc(-c2ccc3c(c2)CN(C2CCOCC2)C3)nn1 [Compound 17458, 2-(difluoromethyl)-5-(3-fluoro-4-((4-(2-(tetrahydro-2H-pyran-4-yl)isoindolin-5-yl)-1H-1,2,3-triazol-1-yl)methyl)phenyl)-1,3,4-oxadiazole]",,,,> 50000,619,80.7
"CN(C)[C@@H]1CCN(Cc2ccc(-c3cn(Cc4ccc(-c5nnc(C(F)F)o5)cc4F)nn3)cc2)C1 [Compound 4605, (R)-1-(4-(1-(4-(5-(difluoromethyl)-1,3,4-oxadiazol-2-yl)-2-fluorobenzyl)-1H-1,2,3-triazol-4-yl)benzyl)-N,N-dimethylpyrrolidin-3-amine]",,,,> 50000,2380,21
CC(C)(F)C(=O)N1CCC(c2cn(Cc3ccc(-c4nnc(C(F)F)o4)cn3)nn2)CC1 [Compound 3894],> 50000,498,100,,,
"FC(F)c1nnc(-c2ccc(Cn3cc(-c4cccc5c4CN(C4COC4)C5)nn3)nc2)o1 [Compound 4599, 2-(difluoromethyl)-5-(6-((4-(2-(oxetan-3-yl)isoindolin-4-yl)-1H-1,2,3-triazol-1-yl)methyl)pyridin-3-yl)-1,3,4-oxadiazole]",,,,> 50000,662,75.5
